# Columns and labels:
# Assay type in all cases: in vivo
# [1] = system: Adults of Ctenocephalides felis, strain "Georgi"; test: Test with cat fleas / oral uptake; details: 24 h, read-out: % action (mortality of larvae)
# Experimental: Test with Cat Fleas/Oral Uptake
# Test animals: Adults of Crenocephalides felis
# Solvent: Dimethyl sulphoxide (DMSO)
# To produce a suitable preparation, a suitable solution of active compound is prepared from 20 mg of active compound and 1 ml of DMSO. 20 μl of this formulation are added to 4 ml of citrated cattle blood and stirred.
# 20 unfed adult fleas (Ctenocephalides felis, strain “Georgi”) are placed into a chamber (Ø 5 cm) whose top and bottom are closed with gauze. A metal cylinder whose underside is covered with parafilm is placed onto the chamber. The cylinder contains the 4 ml of blood/active compound formulation which can be taken up by the fleas through the parafilm membrane. Whereas the blood is warmed to 37° C., the temperature in the area of the flea chambers is adjusted to 25° C. Controls are mixed with the same volume of DMSO, without addition of a compound. The determinations are carried out triplicate.
# After 24 h, the mortality in % is determined.
# Compounds which effect an at least 25% kill of the fleas within 24 h are judged to be effective.
# [2] = system: Third larval stages of Periplanela americana; test: Test with cockroaches - dip treatment; details: dip treatment 60 seconds, after 7 days, 100% = all cockroach larvae killed
# Experimental: Test with Cockroaches—Dip Treatment
# Test animals: Third larval stages of Periplanela americana
# (§1) Solvent: Dimethyl sulphoxide
# (§2) 20 mg of active compound are dissolved in one ml of dimethyl sulphoxide. To prepare a suitable formulation, the solution of active compound is diluted with water to the particular concentration desired.
# […] of this preparation of active compound are pipetted into tubes (Ø 1.5 cm, H 10 cm). 4 cockroach larvae are anaesthetized with CO2 and transferred into a tube (Ø 1.2 cm, H 9 cm) with 3 holes (bottom and 5 cm below the upper rim). […] The tube is dipped into the preparation of active compound for 60 seconds, with all cockroach larvae being wetted completely. After the liquid has run off, the cockroach larvae are transferred to filter discs in PP dishes (Ø 9.7 cm. H 8 cm).
# After 2 and 24 hours and after 7 days, the activity of the preparation of active compound is determined. 100% means that all cockroach larvae have been killed; 0% means that none of the cockroach larvae have been killed.
# [3] = system: Lucilia cuprina larvae; test: Blowfly larvae test / development-inhibitory action; details: 48 h, read-out: % action (mortality of larvae)
# Experimental: Blowfly Larvae Test/Development-Inhibitory Action
# Test animals: Lucilia cuprina larvae
# as §1, §2
# About 20 Lucilia cuprina larvae are introduced into a test tube which contains about 1 cm^3 of horsemeat and 0.5 ml of the preparation of active compound to be tested. The activity of the preparation of active compound is determined after 48 hours as the mortality of the larvae in %.
# The test tubes are then transferred into a beaker whose bottom is covered with sand. After a further 12 days, the test tubes are removed and the pupae and flies are counted. The development-inhibitory action is stated as inhibition of hatching in % (ratio of pupae to flies that have hatched) after 1.5 times the development period of an untreated control.
compound,measurement,setting,value
"Cc1s/c(=N\C#N)n2c1N(Cc1ccc(Cl)nc1)CC2 [Compound I-1, 1-[6-Chloro-3-pyridylmethyl]-5-cyanoimino-7-methyl-4.5-dihydro[1,3]diazolano-[1,2-c][1,3]thiazoline]",mortality at 100 ppm,[1],30%
same,% action (7 d),[2]; 100 ppm,100%
same,% action (7 d),[2]; 300 ppm,100%
same,% action (7 d),[2]; 1000 ppm,100%
same,mortality at 100 ppm,[3],100%
same,mortality at 300 ppm,[3],100%
same,mortality at 1000 ppm,[3],100%
